Results as given in publication doi:10.1101/2023.11.24.568596v1 (biorxiv, 2023).

Each compound was assayed against MST3 (Homo sapiens, UniProt Q9Y6E0). Conditions: binder.
Sequence of MST3 (Q9Y6E0 whole entry): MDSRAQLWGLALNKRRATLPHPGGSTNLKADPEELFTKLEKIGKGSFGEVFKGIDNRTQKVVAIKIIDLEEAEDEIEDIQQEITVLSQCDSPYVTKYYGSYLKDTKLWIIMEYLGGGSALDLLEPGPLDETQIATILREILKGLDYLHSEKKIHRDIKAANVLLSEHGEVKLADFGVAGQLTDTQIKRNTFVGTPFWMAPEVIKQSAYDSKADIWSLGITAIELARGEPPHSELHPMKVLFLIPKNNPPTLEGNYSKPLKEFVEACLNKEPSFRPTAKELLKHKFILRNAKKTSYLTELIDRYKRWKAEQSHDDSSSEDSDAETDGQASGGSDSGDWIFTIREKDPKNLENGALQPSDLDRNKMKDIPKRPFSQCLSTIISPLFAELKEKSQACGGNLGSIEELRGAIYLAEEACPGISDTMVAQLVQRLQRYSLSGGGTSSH

SMILES | dTm MST3
CNc1ncc2cc(-c3ccc(-c4cccc(C)n4)cc3Cl)c(=O)n(CCCCN)c2n1 [compound 20, MRLW5] | 11.7 °C
CNc1ncc2cc(-c3ccc(-c4cccc(C)n4)cc3Cl)c(=O)n(CCC3CCNCC3)c2n1 [compound 22, 6-(2-Chloro-4-(6-methylpyridin-2-yl)phenyl)-2-(methylamino)-8-(2-(piperidin-4-yl)ethyl)pyrido[2,3-d]pyrimidin-7(8H)-one] | 10.5 °C
CNc1ncc2cc(-c3ccc(-c4cccc(C)n4)cc3Cl)c(=O)n(C[C@H]3CC[C@H](N)CC3)c2n1 [compound 23, 23] | 10.8 °C
